The NIST ThermoML archive (doi:10.1016/j.fluid.2007.04.023)
± gives the expanded uncertainty stated by the source.

Conditions: Liquid, Vibrating tube method

CCCCCCCCCCCCC [tridecane]
mass density (313.01 K, 1023 kPa): 743.49 ± 0.32 kg/m3
mass density (313.01 K, 2030 kPa): 744.27 ± 0.34 kg/m3
mass density (313.01 K, 3025 kPa): 745.05 ± 0.35 kg/m3
mass density (313.01 K, 4027 kPa): 745.74 ± 0.36 kg/m3
mass density (313.01 K, 5014 kPa): 746.51 ± 0.37 kg/m3
mass density (313.01 K, 6024 kPa): 747.18 ± 0.39 kg/m3
mass density (313.01 K, 7021 kPa): 747.95 ± 0.4 kg/m3
mass density (313.01 K, 8036 kPa): 748.69 ± 0.41 kg/m3
mass density (313.01 K, 9019 kPa): 749.41 ± 0.42 kg/m3
mass density (313.01 K, 10018 kPa): 750.14 ± 0.43 kg/m3
mass density (313.01 K, 11030 kPa): 750.86 ± 0.45 kg/m3
mass density (313.01 K, 12006 kPa): 751.51 ± 0.46 kg/m3
mass density (313.01 K, 13017 kPa): 752.24 ± 0.47 kg/m3
mass density (313.01 K, 14035 kPa): 752.95 ± 0.48 kg/m3
mass density (313.01 K, 15021 kPa): 753.59 ± 0.49 kg/m3
mass density (313.01 K, 16019 kPa): 754.27 ± 0.51 kg/m3
mass density (313.01 K, 17019 kPa): 754.94 ± 0.52 kg/m3
mass density (313.01 K, 18024 kPa): 755.61 ± 0.53 kg/m3
mass density (313.01 K, 19025 kPa): 756.27 ± 0.54 kg/m3
mass density (313.01 K, 20043 kPa): 756.91 ± 0.55 kg/m3
mass density (313.01 K, 21011 kPa): 757.52 ± 0.56 kg/m3
mass density (313.01 K, 22020 kPa): 758.16 ± 0.58 kg/m3
mass density (313.01 K, 23018 kPa): 758.79 ± 0.59 kg/m3
mass density (313.01 K, 24004 kPa): 759.44 ± 0.6 kg/m3
mass density (313.01 K, 25036 kPa): 760.12 ± 0.61 kg/m3
mass density (322.92 K, 1017 kPa): 736.15 ± 0.33 kg/m3
mass density (322.92 K, 2006 kPa): 736.94 ± 0.34 kg/m3
mass density (322.92 K, 3025 kPa): 737.83 ± 0.35 kg/m3
mass density (322.92 K, 4021 kPa): 738.62 ± 0.36 kg/m3
mass density (322.92 K, 5021 kPa): 739.42 ± 0.38 kg/m3
mass density (322.92 K, 6043 kPa): 740.18 ± 0.39 kg/m3
mass density (322.92 K, 7018 kPa): 740.9 ± 0.4 kg/m3
mass density (322.92 K, 8022 kPa): 741.72 ± 0.41 kg/m3
mass density (322.92 K, 9008 kPa): 742.44 ± 0.43 kg/m3
mass density (322.92 K, 10012 kPa): 743.18 ± 0.44 kg/m3
mass density (322.92 K, 11015 kPa): 743.93 ± 0.45 kg/m3
mass density (322.92 K, 12006 kPa): 744.71 ± 0.46 kg/m3
mass density (322.92 K, 13030 kPa): 745.38 ± 0.48 kg/m3
mass density (322.92 K, 14010 kPa): 746.12 ± 0.49 kg/m3
mass density (322.92 K, 15026 kPa): 746.81 ± 0.5 kg/m3
mass density (322.92 K, 16024 kPa): 747.53 ± 0.51 kg/m3
mass density (322.92 K, 17016 kPa): 748.22 ± 0.52 kg/m3
mass density (322.92 K, 18010 kPa): 748.89 ± 0.54 kg/m3
mass density (322.92 K, 19007 kPa): 749.56 ± 0.55 kg/m3
mass density (322.92 K, 20023 kPa): 750.22 ± 0.56 kg/m3
mass density (322.92 K, 21020 kPa): 750.92 ± 0.57 kg/m3
mass density (322.92 K, 22010 kPa): 751.57 ± 0.58 kg/m3
mass density (322.92 K, 23040 kPa): 752.26 ± 0.6 kg/m3
mass density (322.92 K, 24006 kPa): 752.95 ± 0.61 kg/m3
mass density (322.92 K, 25006 kPa): 753.6 ± 0.62 kg/m3
mass density (332.78 K, 1015 kPa): 729.19 ± 0.33 kg/m3
mass density (332.78 K, 2020 kPa): 730.06 ± 0.34 kg/m3
mass density (332.78 K, 3022 kPa): 730.83 ± 0.35 kg/m3
mass density (332.78 K, 4016 kPa): 731.63 ± 0.37 kg/m3
mass density (332.78 K, 5020 kPa): 732.47 ± 0.38 kg/m3
mass density (332.78 K, 6016 kPa): 733.27 ± 0.39 kg/m3
mass density (332.78 K, 7006 kPa): 734.09 ± 0.41 kg/m3
mass density (332.78 K, 8018 kPa): 734.9 ± 0.42 kg/m3
mass density (332.78 K, 9013 kPa): 735.71 ± 0.43 kg/m3
mass density (332.78 K, 10008 kPa): 736.52 ± 0.44 kg/m3
mass density (332.78 K, 11016 kPa): 737.3 ± 0.46 kg/m3
mass density (332.78 K, 12007 kPa): 738.05 ± 0.47 kg/m3
mass density (332.78 K, 13012 kPa): 738.79 ± 0.48 kg/m3
mass density (332.78 K, 14021 kPa): 739.55 ± 0.49 kg/m3
mass density (332.78 K, 15011 kPa): 740.26 ± 0.51 kg/m3
mass density (332.78 K, 16020 kPa): 741.03 ± 0.52 kg/m3
mass density (332.78 K, 17015 kPa): 741.74 ± 0.53 kg/m3
mass density (332.78 K, 18005 kPa): 742.47 ± 0.54 kg/m3
mass density (332.78 K, 19017 kPa): 743.19 ± 0.55 kg/m3
mass density (332.78 K, 20014 kPa): 743.89 ± 0.57 kg/m3
mass density (332.78 K, 21016 kPa): 744.66 ± 0.58 kg/m3
mass density (332.78 K, 22046 kPa): 745.35 ± 0.59 kg/m3
mass density (332.78 K, 22994 kPa): 745.97 ± 0.6 kg/m3
mass density (332.78 K, 24032 kPa): 746.67 ± 0.61 kg/m3
mass density (332.78 K, 25030 kPa): 747.38 ± 0.63 kg/m3
